Key:
Type in all cases: cell-based
[1] = test system: Rhizoctonia solani (RHIZSO); assay: microbe, parasite or virus in culture; conditions: Rhizoctonia solani, read-out: RHIZSO in vitro Growth Inhibition
[2] = test system: Mycosphaerella graminicola (Septoria tritici—SEPTTR); assay: In vitro fungal growth inhibition, Mycosphaerella graminicola (SEPTTR); conditions: Zymoseptoria tritici; 25 ppm in growth medium; read-out: SEPTTR in vitro Growth Inhibition
[3] = test system: Magnaporthe grisea (Pyricularia oryzae—PYRIOR); assay: microbe, parasite or virus in culture; conditions: Pyricularia oryzae, read-out: PYRIOR in vitro Growth Inhibition
[4] = test system: Ustilago maydis (USTIMA); assay: microbe, parasite or virus in culture; conditions: Mycosarcoma maydis, read-out: USTIMA in vitro Growth Inhibition
[5] = test system: Stagonospora nodorum (Leptosphaeria nodorum—LEPTNO); assay: In vitro fungal growth inhibition, Stagonospora nodorum (LEPTNO); conditions: Leptosphaeria; 25 ppm in growth medium; read-out: LEPTNO in vitro Growth Inhibition
[6] = test system: Phytophthora infestans (PHYTIN); assay: microbe, parasite or virus in culture; conditions: Phytophthora infestans, read-out: PHYTIN in vitro Growth Inhibition

COc1ccnc(C(=O)N[C@H]2COC(=O)[C@H](Cc3ccccc3)[C@@H](OC(=O)C(C)C)[C@H](C)OC2=O)c1OC(=O)c1ccc(Cl)cc1Cl [Compound 643]
inhibition at 25 ppm [1]: < 80% | inhibition at 25 ppm [2]: < 80% | inhibition at 25 ppm [3]: < 80% | inhibition at 25 ppm [4]: < 80% | inhibition at 25 ppm [5]: > 80% | inhibition at 25 ppm [6]: < 80%

C=CCOC(=O)Oc1c(OC)ccnc1C(=O)N[C@H]1COC(=O)[C@H](Cc2ccccc2)[C@@H](OC(=O)C(C)C)[C@H](C)OC1=O [Compound 681]
inhibition at 25 ppm [1]: > 80% | inhibition at 25 ppm [2]: < 80% | inhibition at 25 ppm [3]: > 80% | inhibition at 25 ppm [4]: < 80% | inhibition at 25 ppm [5]: > 80% | inhibition at 25 ppm [6]: < 80%

COc1ccnc(C(=O)N[C@H]2COC(=O)[C@H](Cc3ccccc3)[C@@H](OC(=O)C(C)C)[C@H](C)OC2=O)c1OC(=O)c1c(F)c(F)c(F)c(F)c1F [Compound 642]
inhibition at 25 ppm [1]: < 80% | inhibition at 25 ppm [2]: < 80% | inhibition at 25 ppm [3]: < 80% | inhibition at 25 ppm [4]: < 80% | inhibition at 25 ppm [5]: > 80% | inhibition at 25 ppm [6]: < 80%

COc1ccnc(C(=O)NCC(=O)OC2CCCCC2)c1O [Compound 372]
inhibition at 25 ppm [1]: > 80% | inhibition at 25 ppm [2]: < 80% | inhibition at 25 ppm [3]: < 80% | inhibition at 25 ppm [4]: < 80% | inhibition at 25 ppm [5]: < 80% | inhibition at 25 ppm [6]: < 80%

COc1ccnc(C(=O)N[C@H]2COC(=O)[C@H](Cc3ccccc3)[C@@H](OC(=O)C(C)C)[C@H](C)OC2=O)c1OC(=O)Oc1ccccc1 [Compound 697]
inhibition at 25 ppm [1]: < 80% | inhibition at 25 ppm [2]: < 80% | inhibition at 25 ppm [3]: < 80% | inhibition at 25 ppm [4]: < 80% | inhibition at 25 ppm [5]: > 80% | inhibition at 25 ppm [6]: < 80%

COc1ccnc(C(=O)NC(Cc2ccc(OCc3ccccc3)cc2)C(=O)O)c1O (stereo not drawn) [Compound 374]
inhibition at 25 ppm [1]: < 80% | inhibition at 25 ppm [2]: < 80% | inhibition at 25 ppm [3]: < 80% | inhibition at 25 ppm [4]: < 80% | inhibition at 25 ppm [5]: > 80% | inhibition at 25 ppm [6]: < 80%

CCCSC(=O)Oc1c(OC)ccnc1C(=O)N[C@H]1COC(=O)[C@H](Cc2ccccc2)[C@@H](OC(=O)C(C)C)[C@H](C)OC1=O [Compound 699]
inhibition at 25 ppm [1]: < 80% | inhibition at 25 ppm [2]: < 80% | inhibition at 25 ppm [3]: > 80% | inhibition at 25 ppm [4]: < 80% | inhibition at 25 ppm [5]: > 80% | inhibition at 25 ppm [6]: < 80%

COc1ccnc(C(=O)NCCCCCCCCCCC(=O)Oc2cccc(NC(C)=O)c2)c1O [Compound 363]
inhibition at 25 ppm [1]: < 80% | inhibition at 25 ppm [2]: < 80% | inhibition at 25 ppm [3]: > 80% | inhibition at 25 ppm [4]: < 80% | inhibition at 25 ppm [5]: < 80% | inhibition at 25 ppm [6]: < 80%

COc1ccnc(C(=O)N[C@H]2COC(=O)[C@H](Cc3ccccc3)[C@@H](OC(=O)C(C)C)[C@H](C)OC2=O)c1OC(=O)c1ccccc1F [Compound 636]
inhibition at 25 ppm [1]: < 80% | inhibition at 25 ppm [2]: < 80% | inhibition at 25 ppm [3]: < 80% | inhibition at 25 ppm [4]: < 80% | inhibition at 25 ppm [5]: > 80% | inhibition at 25 ppm [6]: < 80%

COc1ccnc(C(=O)N[C@H]2COC(=O)[C@H](Cc3ccccc3)[C@@H](OC(=O)C(C)C)[C@H](C)OC2=O)c1OC(=O)c1ccc(F)cc1F [Compound 638]
inhibition at 25 ppm [1]: < 80% | inhibition at 25 ppm [2]: < 80% | inhibition at 25 ppm [3]: < 80% | inhibition at 25 ppm [4]: < 80% | inhibition at 25 ppm [5]: > 80% | inhibition at 25 ppm [6]: < 80%

COc1ccnc(C(=O)NCCCCCCCCCCCC(=O)Oc2cccc(NC(C)=O)c2)c1O [Compound 365]
inhibition at 25 ppm [1]: < 80% | inhibition at 25 ppm [2]: < 80% | inhibition at 25 ppm [3]: > 80% | inhibition at 25 ppm [4]: < 80% | inhibition at 25 ppm [5]: < 80% | inhibition at 25 ppm [6]: < 80%

COc1ccnc(C(=O)N[C@H]2COC(=O)[C@H](Cc3ccccc3)[C@@H](OC(=O)C(C)C)[C@H](C)OC2=O)c1OC(=O)Cc1cccs1 [Compound 675]
inhibition at 25 ppm [1]: < 80% | inhibition at 25 ppm [2]: < 80% | inhibition at 25 ppm [3]: > 80% | inhibition at 25 ppm [4]: < 80% | inhibition at 25 ppm [5]: > 80% | inhibition at 25 ppm [6]: < 80%

COc1ccnc(C(=O)N[C@H]2COC(=O)[C@H](Cc3ccccc3)[C@@H](OC(=O)C(C)C)[C@H](C)OC2=O)c1OC(=O)/C=C/c1ccccc1 [Compound 651]
inhibition at 25 ppm [1]: < 80% | inhibition at 25 ppm [2]: < 80% | inhibition at 25 ppm [3]: < 80% | inhibition at 25 ppm [4]: < 80% | inhibition at 25 ppm [5]: > 80% | inhibition at 25 ppm [6]: < 80%

COc1ccnc(C(=O)N[C@H]2COC(=O)[C@H](Cc3ccccc3)[C@@H](OC(=O)C(C)C)[C@H](C)OC2=O)c1OC(=O)c1ccnc(Cl)c1 [Compound 672]
inhibition at 25 ppm [1]: < 80% | inhibition at 25 ppm [2]: < 80% | inhibition at 25 ppm [3]: < 80% | inhibition at 25 ppm [4]: < 80% | inhibition at 25 ppm [5]: > 80% | inhibition at 25 ppm [6]: < 80%

COc1ccnc(C(=O)N[C@H]2COC(=O)[C@H](Cc3ccccc3)[C@@H](OC(=O)C(C)C)[C@H](C)OC2=O)c1OC(=O)CC(C)C [Compound 606]
inhibition at 25 ppm [1]: < 80% | inhibition at 25 ppm [2]: < 80% | inhibition at 25 ppm [3]: < 80% | inhibition at 25 ppm [4]: < 80% | inhibition at 25 ppm [5]: > 80% | inhibition at 25 ppm [6]: < 80%

COc1ccnc(C(=O)NCCCCC(=O)Oc2cccnc2Br)c1O [Compound 366]
inhibition at 25 ppm [1]: < 80% | inhibition at 25 ppm [2]: < 80% | inhibition at 25 ppm [3]: < 80% | inhibition at 25 ppm [4]: < 80% | inhibition at 25 ppm [5]: < 80% | inhibition at 25 ppm [6]: > 80%

COc1ccnc(C(=O)NCCCCCCCCCCCC(=O)OCCSc2ccccc2)c1O [Compound 364]
inhibition at 25 ppm [1]: < 80% | inhibition at 25 ppm [2]: < 80% | inhibition at 25 ppm [3]: > 80% | inhibition at 25 ppm [4]: < 80% | inhibition at 25 ppm [5]: < 80% | inhibition at 25 ppm [6]: < 80%

COc1ccnc(C(=O)N[C@H]2COC(=O)[C@H](Cc3ccccc3)[C@@H](OC(=O)C(C)C)[C@H](C)OC2=O)c1OC(=O)c1c(-c2c(Cl)cccc2Cl)noc1C [Compound 677]
inhibition at 25 ppm [1]: < 80% | inhibition at 25 ppm [2]: < 80% | inhibition at 25 ppm [3]: < 80% | inhibition at 25 ppm [4]: < 80% | inhibition at 25 ppm [5]: > 80% | inhibition at 25 ppm [6]: < 80%

COc1ccnc(C(=O)NC(C)C(=O)OCCCCCc2ccccc2)c1O (stereo not drawn) [Compound 370]
inhibition at 25 ppm [1]: < 80% | inhibition at 25 ppm [2]: < 80% | inhibition at 25 ppm [3]: < 80% | inhibition at 25 ppm [4]: < 80% | inhibition at 25 ppm [5]: > 80% | inhibition at 25 ppm [6]: < 80%

COc1ccnc(C(=O)N[C@H]2COC(=O)[C@H](Cc3ccccc3)[C@@H](OC(=O)C(C)C)[C@H](C)OC2=O)c1OC(=O)c1ccc(Cl)c(Cl)c1 [Compound 644]
inhibition at 25 ppm [1]: < 80% | inhibition at 25 ppm [2]: < 80% | inhibition at 25 ppm [3]: < 80% | inhibition at 25 ppm [4]: < 80% | inhibition at 25 ppm [5]: > 80% | inhibition at 25 ppm [6]: < 80%

COc1ccnc(C(=O)NCCCCCCCC(=O)Oc2ccc(C)c(Cl)c2)c1O [Compound 368]
inhibition at 25 ppm [1]: > 80% | inhibition at 25 ppm [2]: < 80% | inhibition at 25 ppm [3]: < 80% | inhibition at 25 ppm [4]: < 80% | inhibition at 25 ppm [5]: < 80% | inhibition at 25 ppm [6]: < 80%

COc1ccnc(C(=O)NC(CC(N)=O)C(=O)OC/C=C(/C)CCC=C(C)C)c1O (stereo not drawn) [Compound 373]
inhibition at 25 ppm [1]: > 80% | inhibition at 25 ppm [2]: < 80% | inhibition at 25 ppm [3]: < 80% | inhibition at 25 ppm [4]: < 80% | inhibition at 25 ppm [5]: < 80% | inhibition at 25 ppm [6]: < 80%

COc1ccnc(C(=O)NC(CC2CCCCC2)C(=O)OC2CCNC2)c1O (stereo not drawn) [Compound 369]
inhibition at 25 ppm [1]: > 80% | inhibition at 25 ppm [2]: < 80% | inhibition at 25 ppm [3]: < 80% | inhibition at 25 ppm [4]: < 80% | inhibition at 25 ppm [5]: < 80% | inhibition at 25 ppm [6]: < 80%

COc1ccnc(C(=O)N[C@H]2COC(=O)[C@H](Cc3ccccc3)[C@@H](OC(=O)C(C)C)[C@H](C)OC2=O)c1OC(=O)c1ccc(F)cc1 [Compound 637]
inhibition at 25 ppm [1]: < 80% | inhibition at 25 ppm [2]: < 80% | inhibition at 25 ppm [3]: < 80% | inhibition at 25 ppm [4]: < 80% | inhibition at 25 ppm [5]: > 80% | inhibition at 25 ppm [6]: < 80%

COc1ccnc(C(=O)NCC(=O)OCCCCCc2ccccc2)c1O [Compound 371]
inhibition at 25 ppm [1]: > 80% | inhibition at 25 ppm [2]: < 80% | inhibition at 25 ppm [3]: < 80% | inhibition at 25 ppm [4]: < 80% | inhibition at 25 ppm [5]: < 80% | inhibition at 25 ppm [6]: < 80%

COc1ccnc(C(=O)N[C@H]2COC(=O)[C@H](Cc3ccccc3)[C@@H](OC(=O)C(C)C)[C@H](C)OC2=O)c1OC(=O)c1cccc(C)c1C [Compound 632]
inhibition at 25 ppm [1]: < 80% | inhibition at 25 ppm [2]: < 80% | inhibition at 25 ppm [3]: < 80% | inhibition at 25 ppm [4]: < 80% | inhibition at 25 ppm [5]: > 80% | inhibition at 25 ppm [6]: < 80%

COc1ccnc(C(=O)N[C@H]2COC(=O)[C@H](Cc3ccccc3)[C@@H](OC(=O)C(C)C)[C@H](C)OC2=O)c1OC(=O)c1cccc(C(F)(F)F)c1 [Compound 640]
inhibition at 25 ppm [1]: < 80% | inhibition at 25 ppm [2]: < 80% | inhibition at 25 ppm [3]: < 80% | inhibition at 25 ppm [4]: < 80% | inhibition at 25 ppm [5]: > 80% | inhibition at 25 ppm [6]: < 80%

COc1ccnc(C(=O)N[C@H]2COC(=O)[C@H](Cc3ccccc3)[C@@H](OC(=O)C(C)C)[C@H](C)OC2=O)c1OC(=O)C(Cl)c1ccccc1 (stereo partly drawn) [Compound 649]
inhibition at 25 ppm [1]: < 80% | inhibition at 25 ppm [2]: < 80% | inhibition at 25 ppm [3]: > 80% | inhibition at 25 ppm [4]: < 80% | inhibition at 25 ppm [5]: > 80% | inhibition at 25 ppm [6]: < 80%

COc1ccnc(C(=O)NCCCCC(=O)Oc2cccc(NC(C)=O)c2)c1O [Compound 367]
inhibition at 25 ppm [1]: < 80% | inhibition at 25 ppm [2]: < 80% | inhibition at 25 ppm [3]: > 80% | inhibition at 25 ppm [4]: < 80% | inhibition at 25 ppm [5]: < 80% | inhibition at 25 ppm [6]: < 80%

Source: patent US6706740B2, “Fungicidal heterocyclic aromatic amides and their compositions, methods of use and preparation” (Dow AgroSciences LLC, priority 1999, dated 2004)
